Results from patent publication US20230278996A1, “YKL-40 INHIBITORS AND THEIR THERAPEUTIC APPLICATIONS” (Molecure S.A., priority 2022, published 2023).

Molecular target: YKL-40 (Homo sapiens (Human), UniProt P36222)
Experiment: YKL-40:4 assay, competitive chitin binding site AlphaScreen
Settings: competition with biotinylated compound 4 (20 nM), YKL-40-histag 2.5 nM

YKL-40, sequence (P36222 22-383): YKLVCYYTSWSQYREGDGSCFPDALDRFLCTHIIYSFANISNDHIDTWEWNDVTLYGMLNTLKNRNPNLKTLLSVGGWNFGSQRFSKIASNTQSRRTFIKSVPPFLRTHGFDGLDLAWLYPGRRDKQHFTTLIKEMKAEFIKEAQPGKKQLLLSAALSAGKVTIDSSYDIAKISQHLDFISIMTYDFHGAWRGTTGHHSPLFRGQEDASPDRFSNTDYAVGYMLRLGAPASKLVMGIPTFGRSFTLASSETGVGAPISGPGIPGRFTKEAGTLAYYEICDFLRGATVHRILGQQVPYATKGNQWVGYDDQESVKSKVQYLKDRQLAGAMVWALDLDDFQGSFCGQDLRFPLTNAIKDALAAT

Row | Compound | IC50
1 | Clc1ccc(C[C@H]2COCCN2C2CCN(c3ccccn3)CC2)cc1 [compound 88, (S)-3-(4-chlorobenzyl)-4-(1-(pyridin-2-yl)piperidin-4-yl)morpholine 2,2,2-trifluoroacetate] | 100 to 1000 nM
2 | COC1(C)CCN(C2CCN(c3ccccn3)CC2)[C@@H](Cc2ccc(Cl)cc2)C1 (stereo partly drawn) [compound 91, (2S)-2-(4-chlorobenzyl)-4-methoxy-4-methyl-1′-(pyridin-2-yl)-1,4′-bipiperidine 2,2,2-trifluoroacetate] | < 100 nM
3 | CC1(O)CCN(C2CCN(c3ccccn3)CC2)[C@@H](Cc2ccc(Cl)cc2)C1 (stereo partly drawn) [compound 92, (2S)-2-(4-chlorobenzyl)-4-methyl-1′-(pyridin-2-yl)-[1,4′-bipiperidin]-4-ol 2,2,2-trifluoroacetate] | < 100 nM
4 | COC(C)(C)CN1C[C@H](Cc2ccc(Cl)cc2)N(C2CCN(c3ccccn3)CC2)C[C@@H]1CC(C)C [compound 100, (2S,5S)-2-(4-chlorobenzyl)-5-isobutyl-4-(2-methoxy-2-methylpropyl)-1-(1-(pyridin-2-yl)piperidin-4-yl)piperazine 2,2,2-trifluoroacetate] | 1000 to 10000 nM
5 | C[C@@H](O)CN1C[C@H](Cc2ccc(Cl)cc2)N(C2CCN(c3ccccn3)CC2)C[C@@H]1C [compound 102, (R)-1-((2S,5S)-5-(4-chlorobenzyl)-2-methyl-4-(1-(pyridin-2-yl)piperidin-4-yl)piperazin-1-yl)propan-2-ol 2,2,2-trifluoroacetate] | 100 to 1000 nM
6 | C[C@H](O)CN1C[C@H](Cc2ccc(Cl)cc2)N(C2CCN(c3ccccn3)CC2)C[C@@H]1C [compound 104, (S)-1-((2S,5S)-5-(4-chlorobenzyl)-2-methyl-4-(1-(pyridin-2-yl)piperidin-4-yl)piperazin-1-yl)propan-2-ol 2,2,2-trifluoroacetate] | < 100 nM
7 | C[C@H](O)[C@H]1CN(C2CCN(c3ccccn3)CC2)[C@@H](Cc2ccc(Cl)cc2)CN1C [compound 105, (S)-1-((2R,5S)-5-(4-chlorobenzyl)-1-methyl-4-(1-(pyridin-2-yl)piperidin-4-yl)piperazin-2-yl)ethan-1-ol 2,2,2-trifluoroacetate] | < 100 nM
8 | CO[C@@H]1CCN(C2CCN(c3ccccn3)CC2)[C@@H](Cc2ccc(Cl)cc2)C1 [compound 108, (2S,4R)-2-(4-chlorobenzyl)-4-methoxy-1′-(pyridin-2-yl)-1,4′-bipiperidine 2,2,2-trifluoroacetate] | < 100 nM
9 | CO[C@H]1CCN(C2CCN(c3ccccn3)CC2)[C@@H](Cc2ccc(Cl)cc2)C1 [compound 109, (2S,4S)-2-(4-chlorobenzyl)-4-methoxy-1′-(pyridin-2-yl)-1,4′-bipiperidine 2,2,2-trifluoroacetate] | 100 to 1000 nM
10 | C[C@@H](O)[C@H]1CN(C2CCN(c3ccccn3)CC2)[C@@H](Cc2ccc(Cl)cc2)CN1C [compound 110, (R)-1-((2R,5S)-5-(4-chlorobenzyl)-1-methyl-4-(1-(pyridin-2-yl)piperidin-4-yl)piperazin-2-yl)ethan-1-ol] | < 100 nM
11 | C[C@H]1CN(C2CCN(c3nccc4ccccc34)CC2)[C@@H](Cc2ccc(Cl)cc2)CO1 [compound 116, (2S,5S)-5-(4-chlorobenzyl)-4-(1-(isoquinolin-1-yl)piperidin-4-yl)-2-methylmorpholine 2,2,2-trifluoroacetate] | > 100000 nM
12 | COC(=O)c1ccnc(N2CCC(N3C[C@H](C)OC[C@@H]3Cc3ccc(Cl)cc3)CC2)c1 [compound 124, methyl 2-(4-((2S,5S)-5-(4-chlorobenzyl)-2-methylmorpholino)piperidin-1-yl)isonicotinate] | > 100000 nM
13 | C[C@H]1CN(C2CCN(c3cccc(F)c3)CC2)[C@@H](Cc2ccc(Cl)cc2)CO1 [compound 127, (2S,5S)-5-(4-chlorobenzyl)-4-(1-(3-fluorophenyl)piperidin-4-yl)-2-methylmorpholine 2,2,2-trifluoroacetate] | > 100000 nM
14 | C[C@H]1CN(C2CCN(c3c(C(=O)O)ccnc3F)CC2)[C@@H](Cc2ccc(Cl)cc2)CO1 [compound 129, 3-(4-((2S,5S)-5-(4-chlorobenzyl)-2-methylmorpholino)piperidin-1-yl)-2-fluoroisonicotinic acid] | > 100000 nM

The next lines start with the values.

Row | IC50 | Compound
15 | 10000 to 100000 nM | CC[C@H]1CN(C2CCN(c3ccccn3)CC2)[C@@H](Cc2ccc(Cl)cc2)CN1C [compound 93, (2S,5S)-2-(4-chlorobenzyl)-5-ethyl-4-methyl-1-(1-(pyridin-2-yl)piperidin-4-yl)piperazine 2,2,2-trifluoroacetate]
16 | 1000 to 10000 nM | CC[C@H]1CN(C2CCN(c3ccccn3)CC2)[C@@H](Cc2ccc(Cl)cc2)CN1CC(C)C [compound 94, (2S,5S)-2-(4-chlorobenzyl)-5-ethyl-4-isobutyl-1-(1-(pyridin-2-yl)piperidin-4-yl)piperazine 2,2,2-trifluoroacetate]
17 | 100 to 1000 nM | C[C@H]1CN(C2CCN(c3ccccn3)CC2)[C@@H](Cc2ccc(Cl)cc2)CN1CC(=O)N(C)C [compound 101, 2-((2S,5S)-5-(4-chlorobenzyl)-2-methyl-4-(1-(pyridin-2-yl)piperidin-4-yl)piperazin-1-yl)-N,N-dimethylacetamide]
18 | 100 to 1000 nM | C[C@H]1CN(C2CCN(c3ccccn3)CC2)[C@@H](Cc2ccc(Cl)cc2)CN1CC(=O)NC1CC1 [compound 103, 2-((2S,5S)-5-(4-chlorobenzyl)-2-methyl-4-(1-(pyridin-2-yl)piperidin-4-yl)piperazin-1-yl)-N-cyclopropylacetamide 2,2,2-trifluoroacetate]
19 | 100 to 1000 nM | CO[C@H](C)CN1C[C@H](Cc2ccc(Cl)cc2)N(C2CCN(c3ccccn3)CC2)C[C@@H]1C [compound 107, (2S,5S)-2-(4-chlorobenzyl)-4-((R)-2-methoxypropyl)-5-methyl-1-(1-(pyridin-2-yl)piperidin-4-yl)piperazine 2,2,2-trifluoroacetate]
20 | 100 to 1000 nM | C[C@H]1CN(C2CCN(c3cc(Br)ccn3)CC2)[C@@H](Cc2ccc(Cl)cc2)CO1 [compound 113, (2S,5S)-4-(1-(4-bromopyridin-2-yl)piperidin-4-yl)-5-(4-chlorobenzyl)-2-methylmorpholine 2,2,2-trifluoroacetate]
21 | > 100000 nM | C[C@H]1CN(C2CCN(c3ncccc3C(N)=O)CC2)[C@@H](Cc2ccc(Cl)cc2)CO1 [compound 114, 2-(4-((2S,5S)-5-(4-chlorobenzyl)-2-methylmorpholino)piperidin-1-yl)nicotinamide 2,2,2-trifluoroacetate]
22 | > 100000 nM | C[C@H]1CN(C2CCN(c3cc(Cl)ccc3C#N)CC2)[C@@H](Cc2ccc(Cl)cc2)CO1 [compound 115, 4-chloro-2-(4-((2S,5S)-5-(4-chlorobenzyl)-2-methylmorpholino)piperidin-1-yl)benzonitrile 2,2,2-trifluoroacetate]
23 | > 100000 nM | COC(=O)c1cccnc1N1CCC(N2C[C@H](C)OC[C@@H]2Cc2ccc(Cl)cc2)CC1 [compound 117, methyl 2-(4-((2S,5S)-5-(4-chlorobenzyl)-2-methylmorpholino)piperidin-1-yl)nicotinate 2,2,2-trifluoroacetate]
24 | > 100000 nM | C[C@H]1CN(C2CCN(c3c(F)cccc3C#N)CC2)[C@@H](Cc2ccc(Cl)cc2)CO1 [compound 118, 2-(4-((2S,5S)-5-(4-chlorobenzyl)-2-methylmorpholino)piperidin-1-yl)-3-fluorobenzonitrile 2,2,2-trifluoroacetate]
25 | > 100000 nM | C[C@H]1CN(C2CCN(c3ccccc3C#N)CC2)[C@@H](Cc2ccc(Cl)cc2)CO1 [compound 119, 2-(4-((2S,5S)-5-(4-chlorobenzyl)-2-methylmorpholino)piperidin-1-yl)benzonitrile 2,2,2-trifluoroacetate]
26 | > 100000 nM | C[C@H]1CN(C2CCN(c3ncccc3CO)CC2)[C@@H](Cc2ccc(Cl)cc2)CO1 [compound 120, (2-(4-((2S,5S)-5-(4-chlorobenzyl)-2-methylmorpholino)piperidin-1-yl)pyridin-3-yl)methanol 2,2,2-trifluoroacetate]
27 | > 100000 nM | COC(=O)c1ccnc(F)c1N1CCC(N2C[C@H](C)OC[C@@H]2Cc2ccc(Cl)cc2)CC1 [compound 121, methyl 3-(4-((2S,5S)-5-(4-chlorobenzyl)-2-methylmorpholino)piperidin-1-yl)-2-fluoroisonicotinate]
28 | > 100000 nM | COC(=O)c1ccnc(N2CCC(N3C[C@H](C)OC[C@@H]3Cc3ccc(Cl)cc3)CC2)c1F [compound 122, methyl 2-(4-((2S,5S)-5-(4-chlorobenzyl)-2-methylmorpholino)piperidin-1-yl)-3-fluoroisonicotinate]
29 | > 100000 nM | C[C@H]1CN(C2CCN(c3c(F)cccc3F)CC2)[C@@H](Cc2ccc(Cl)cc2)CO1 [compound 123, (2S,5S)-5-(4-chlorobenzyl)-4-(1-(2,6-difluorophenyl)piperidin-4-yl)-2-methylmorpholine 2,2,2-trifluoroacetate]
30 | > 100000 nM | C[C@H]1CN(C2CCN(c3cc(C(=O)O)ccn3)CC2)[C@@H](Cc2ccc(Cl)cc2)CO1 [compound 125, 2-(4-((2S,5S)-5-(4-chlorobenzyl)-2-methylmorpholino)piperidin-1-yl)isonicotinic acid 2,2,2-trifluoroacetate]
31 | > 100000 nM | C[C@H]1CN(C2CCN(c3ccccc3F)CC2)[C@@H](Cc2ccc(Cl)cc2)CO1 [compound 126, (2S,5S)-5-(4-chlorobenzyl)-4-(1-(2-fluorophenyl)piperidin-4-yl)-2-methylmorpholine 2,2,2-trifluoroacetate]
32 | > 100000 nM | C[C@H]1CN(C2CCN(c3nccc(C(=O)O)c3F)CC2)[C@@H](Cc2ccc(Cl)cc2)CO1 [compound 128, 2-(4-((2S,5S)-5-(4-chlorobenzyl)-2-methylmorpholino)piperidin-1-yl)-3-fluoroisonicotinic acid 2,2,2-trifluoroacetate]
33 | > 100000 nM | C[C@H]1CN(C2CCN(c3cc(CO)ccn3)CC2)[C@@H](Cc2ccc(Cl)cc2)CO1 [compound 130, (2-(4-((2S,5S)-5-(4-chlorobenzyl)-2-methylmorpholino)piperidin-1-yl)pyridin-4-yl)methanol 2,2,2-trifluoroacetate]
